Source: PMC8399443, “Synthesis, Biological Evaluation, and In Silico Modeling of N-Substituted Quinoxaline-2-Carboxamides” (Pharmaceuticals, 2021)
In brackets after ≈: the same amount, converted by molar mass. Several values for one entry are separate records, joined by “and”; a condition that tells them apart may be missing. Equal values may be shown once. Read-outs that look alike come from different tables or passages of the source.

Tests used:
Mtb H37Ra = test: In vitro antimycobacterial activity, Microplate Alamar Blue Assay (MABA); type: cell-based, Mycobacterium tuberculosis; details: for SI (selectivity index): IC50 HepG2 (µM)/MIC Mtb H37Ra (µM); for MIC: Mycobacterium tuberculosis, H37RA, read-out: MIC Mtb H37Ra; for MIC Mtb H37Ra: MABA, pH of testing medium 6.6
M. smegmatis = test: In vitro antimycobacterial activity, MABA; type: cell-based, Mycobacterium smegmatis; details: Mycolicibacterium smegmatis, read-out: MIC M. smeg
M. aurum = test: In vitro antimycobacterial activity, MABA; type: cell-based, Mycobacterium aurum; details: Mycolicibacterium aurum, read-out: MIC M. aurum
HepG2 cell line = test: In vitro cytotoxicity, CellTiter 96 (MTS); type: cell-based; details: Homo sapiens, HepG2; cytotoxicity, 24 h incubation, CellTiter 96; read-out: HepG2 IC50
S. epidermidis = test: In vitro antibacterial activity, microdilution broth (EUCAST); type: cell-based; details: Staphylococcus epidermidis; 48 h; standards; read-out: MIC Staphylococcus epidermidis
S. aureus = test: as above; type: cell-based; details: Staphylococcus aureus; 48 h; standards; read-out: MIC Staphylococcus aureus
K. pneumoniae = test: as above; type: cell-based; details: Klebsiella pneumoniae; 48 h; standards; read-out: MIC Klebsiella pneumonia
S. marcescens = test: as above; type: cell-based; details: Serratia marcescens; 48 h; standards; read-out: MIC Serratia marcescens
E. faecalis = test: as above; type: cell-based; details: Enterococcus faecalis; 48 h; standards; read-out: MIC Enterococcus faecalis
E. coli = test: as above; type: cell-based; details: Escherichia coli; 48 h; standards; read-out: MIC Escherichia coli
P. aeruginosa = test: as above; type: cell-based; details: Pseudomonas aeruginosa; 48 h; standards; read-out: MIC Pseudomonas aeruginosa

| SMILES | SI (selectivity index) (Mtb H37Ra) | MIC (Mtb H37Ra) | MIC (M. smegmatis; MABA) [µg/mL] | MIC (M. aurum; MABA) [µg/mL] | IC50 (HepG2 cell line) [µM] | further results |
| --- | --- | --- | --- | --- | --- | --- |
| O=C(NCc1ccc(Cl)c(Cl)c1)c1cnc2ccccc2n1 [Compound 31] | 2.80 | 7.81 µg/mL and 23.5 µM | ≥ 500 | ≥ 500 | 66.9 | – |
| COc1ccc(CNC(=O)c2cnc3ccccc3n2)cc1 [Compound 20] | 16.1 | 3.91 µg/mL and 11.8 µM | – | – | 209 | MIC Mtb H37Ra (Mtb H37Ra): 3.91 (20) µg/mL; MIC (M. smegmatis): ≥ 250 µg/mL; MIC (M. aurum): 125 µg/mL |
| COc1ccc(OC)c(CNC(=O)c2cnc3ccccc3n2)c1 [Compound 18] | – | 3.91 µg/mL and 12.1 µM | – | – | > 1000 | MIC (M. smegmatis): ≥ 500 µg/mL; MIC (M. aurum): ≥ 500 µg/mL |
| Cc1ccccc1CNC(=O)c1cnc2ccccc2n1 [Compound 23] | 5.60 | 7.81 µg/mL and 28.2 µM | ≥ 125 | ≥ 125 | 157 | – |
| O=C(Nc1cccc(F)c1)c1cnc2ccccc2n1 [Compound 8] | – | 250 µg/mL (≈ 935 µM) | ≥ 500 | ≥ 500 | > 100 | – |
| O=C(Nc1ccc(F)cc1F)c1cnc2ccccc2n1 [Compound 11] | – | ≥ 500 µg/mL | ≥ 500 | ≥ 500 | > 250 | – |
| O=C(Nc1ccccc1F)c1cnc2ccccc2n1 [Compound 7] | – | ≥ 500 µg/mL | 62.5 | ≥ 500 | > 100 | MIC (M. smegmatis): 234 µM |
| O=C(NCCCc1ccccc1)c1cnc2ccccc2n1 [Compound 33, N-phenylpropylquinoxaline-2-carboxamide] | 2.7 | 15.6 µg/mL and 53.6 µM | ≥ 500 | ≥ 500 | 146 | – |
| O=C(O)c1nccnc1C(=O)Nc1cccc(C(F)(F)F)c1 [C00007 R=3-CF3, reference compound] | – | 250 µg/mL (≈ 803 µM) | – | – | – | – |
| O=C(Nc1cccc(C(F)(F)F)c1)c1cnc2ccccc2n1 [Compound 14] | – | ≥ 500 µg/mL | ≥ 125 | ≥ 125 | > 25 | – |
| NNC(=O)c1ccncc1 [INH, isoniazid, reference compound] | – | 0.25 µg/mL and 1.82 µM | – | – | > 1000 | MIC (M. smegmatis): 15.6 µg/mL; MIC (M. aurum): 3.91 µg/mL |
| O=C(NCc1cccc(F)c1)c1cnc2ccccc2n1 [Compound 21] | 8.92 | 7.81 µg/mL and 27.8 µM | ≥ 500 | ≥ 500 | 248 | – |
| O=C(NCc1cccc(O)c1)c1cnc2ccccc2n1 [Compound 16] | 5.40 | 31.2 µg/mL and 112 µM | 62.5 | ≥ 500 | 601 | MIC (M. smegmatis): 237 µM |
| O=C(NCc1ccc(F)cc1F)c1cnc2ccccc2n1 [Compound 22] | – | ≥ 500 µg/mL | ≥ 500 | ≥ 500 | > 25 | – |
| COc1ccc(NC(=O)c2nccnc2C(=O)O)cc1 [C00007 R=4-OCH3, reference compound] | – | ≥ 500 µg/mL | – | – | – | – |
| O=C(NCc1ccc(Br)cc1)c1cnc2ccccc2n1 [Compound 27] | >4.4 | 7.81 µg/mL and 22.8 µM | ≥ 500 | ≥ 500 | > 100 | – |
| O=C(NC1CCCCC1)c1cnc2ccccc2n1 [Compound 6] | >8.17 | 31.2 µg/mL and 122 µM | 31.2 | ≥ 500 | > 1000 | MIC (M. smegmatis): 122 µM |
| CO[C@H]1/C=C/O[C@@]2(C)Oc3c(C)c(O)c4c(O)c(c(/C=N/N5CCN(C)CC5)c(O)c4c3C2=O)NC(=O)/C(C)=C\C=C\[C@H](C)[C@H](O)[C@@H](C)[C@@H](O)[C@@H](C)[C@H](OC(C)=O)[C@@H]1C [RIF, rifampicin, reference compound] | – | 0.00313 µg/mL and 0.0038 µM | – | – | > 500 | MIC (M. smegmatis): 12.5 µg/mL; MIC (M. aurum): 0.39 µg/mL |
| O=C(NCc1cccc(C(F)(F)F)c1)c1cnc2ccccc2n1 [Compound 28] | 4.12 | 3.91 µg/mL and 11.8 µM | 250 | ≥ 500 | 48.6 | MIC Mtb H37Ra (Mtb H37Ra): 3.91 (28) µg/mL |

| SMILES | SI (selectivity index) (Mtb H37Ra) | MIC (Mtb H37Ra) | MIC (M. smegmatis; MABA) [µg/mL] | MIC (M. aurum; MABA) [µg/mL] | IC50 (HepG2 cell line) [µM] | further results |
| --- | --- | --- | --- | --- | --- | --- |
| COc1cc(NC(=O)c2cnc3ccccc3n2)cc(OC)c1 [Compound 4] | >0.12 | 62.5 µg/mL and 202 µM | ≥ 125 | ≥ 125 | > 25 | – |
| O=C(NCc1cccc(Cl)c1)c1cnc2ccccc2n1 [Compound 26] | 5.34 | 7.81 µg/mL and 26.2 µM | 31.2 | 31.2 | 140 | MIC (M. smegmatis): 105 µM; MIC (M. aurum): 105 µM |
| O=C(O)c1nccnc1C(=O)Nc1ccccc1 [C00007 R=H, reference compound] | – | ≥ 500 µg/mL | – | – | – | – |
| O=C(Nc1ccccc1)c1cnc2ccccc2n1 [Compound 1] | – | ≥ 500 µg/mL | ≥ 250 | ≥ 250 | > 50 | – |
| O=C(Nc1cccc(O)c1)c1cnc2ccccc2n1 [Compound 2] | >4.20 | 15.6 µg/mL and 58.9 µM | ≥ 125 | ≥ 125 | > 250 | – |
| O=C(Nc1cccc(Cl)c1)c1cnc2ccccc2n1 [Compound 13] | – | ≥ 500 µg/mL | ≥ 500 | ≥ 500 | > 25 | – |
| O=C(Nc1ccc(F)cc1)c1cnc2ccccc2n1 [Compound 9] | >1.71 | 15.6 µg/mL and 58.5 µM | ≥ 500 | ≥ 500 | > 100 | – |
| Cc1ccc(CNC(=O)c2cnc3ccccc3n2)cc1 [Compound 24] | 3.11 | 7.81 µg/mL and 28.2 µM | ≥ 250 | ≥ 250 | 87.7 | – |
| O=C(Nc1ccc(O)cc1)c1cnc2ccccc2n1 [Compound 3] | >1.01 | 62.5 µg/mL and 236 µM | ≥ 500 | ≥ 500 | > 250 | – |
| COc1ccc(NC(=O)c2cnc3ccccc3n2)cc1 [Compound 5] | – | ≥ 125 µg/mL | ≥ 125 | ≥ 125 | > 50 | – |
| O=C(NCc1ccc(O)cc1)c1cnc2ccccc2n1 [Compound 17] | >1.1 | 62.5 µg/mL and 224 µM | ≥ 500 | 500 | > 250 | – |
| O=C(Nc1ccccc1Cl)c1cnc2ccccc2n1 [Compound 12] | – | ≥ 125 µg/mL | ≥ 125 | ≥ 125 | > 50 | – |
| COc1cccc(CNC(=O)c2cnc3ccccc3n2)c1 [Compound 19] | >21.3 | 15.6 µg/mL and 47 µM | – | – | > 1000 | MIC (M. smegmatis): ≥ 500 µg/mL; MIC (M. aurum): ≥ 500 µg/mL |
| O=C(NCCc1ccccc1)c1cnc2ccccc2n1 [Compound 32, N-phenethylquinoxaline-2-carboxamide] | – | ≥ 500 µg/mL | ≥ 500 | ≥ 500 | > 1000 | – |
| O=C(O)c1cn(C2CC2)c2cc(N3CCNCC3)c(F)cc2c1=O [CPX, ciprofloxacin] | – | 0.25 µg/mL and 0.75 µM | 0.125 | 0.0156 | > 500 | MIC (S. epidermidis): > 1.02 µg/mL; MIC (S. aureus): 0.128 to 0.256 µg/mL (≈ 0.386 to 0.773 µM); MIC (K. pneumoniae): > 1.02 µg/mL; MIC (S. marcescens): 0.256 µg/mL (≈ 0.773 µM); MIC (E. faecalis): 0.512 µg/mL (≈ 1.55 µM); MIC (E. coli): 0.008 µg/mL (≈ 0.0241 µM); MIC (P. aeruginosa): 0.128 µg/mL (≈ 0.386 µM) |
| O=C(NCc1ccccc1Cl)c1cnc2ccccc2n1 [Compound 25] | – | 15.6 µg/mL and 52.5 µM | – | – | 528 | MIC (M. smegmatis): ≥ 500 µg/mL; MIC (M. aurum): ≥ 500 µg/mL |
| O=C(NCc1ccc(Cl)cc1Cl)c1cnc2ccccc2n1 [Compound 30] | – | ≥ 500 µg/mL | ≥ 125 | ≥ 125 | > 100 | – |
| O=C(NCc1ccccc1)c1cnc2ccccc2n1 [Compound 15] | >17 | 15.6 µg/mL and 59.3 µM | ≥ 125 | ≥ 125 | > 1000 | MIC Mtb H37Ra (Mtb H37Ra): 15.625 (15) µg/mL |
| CN(C)c1ccc(NC(=O)c2cnc3ccccc3n2)cc1 [Compound 10] | – | ≥ 500 µg/mL | ≥ 500 | ≥ 500 | > 250 | – |
